Source: PubChem BioAssay AID1963853 (Molecular Pharmacology Branch, DTP, NCI, 2024)

System: 266295-075-R-J1-PDC spheroid viability
Assay: Anticancer human tumor 266295-075-R-J1-PDC patient-derived head and neck squamous carcinoma cell line growth inhibition [POLQ]
Settings: spheroids with HUVEC and MSC; for IC50: curve of first compound; for viability, T/C: stronger effect = lower value; active means viability on the fitted dose curve at most 10% of control; inactive means the rest
In short: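 Growth inhibition in 3D: complex spheroids (tumor PDC, HUVEC, MSC) treated with POLQ inhibitor combinations; where Cmax unknown, highest tested concentration 10 microM, except SN-38 at 1 microM.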

[1] = second compound 0.0316 µM, first compound 0.0316 µM
[2] = second compound 0.0316 µM, first compound 0.1 µM
[3] = second compound 0.0316 µM, first compound 0.316 µM
[4] = second compound 0.0316 µM, first compound 1 µM
[5] = second compound 0.0316 µM, first compound 3.16 µM
[6] = second compound 0.0316 µM, first compound 10 µM
[7] = second compound 0.1 µM, first compound 0.0316 µM
[8] = second compound 0.1 µM, first compound 0.1 µM
[9] = second compound 0.1 µM, first compound 0.316 µM
[10] = second compound 0.1 µM, first compound 1 µM
[11] = second compound 0.1 µM, first compound 3.16 µM
[12] = second compound 0.1 µM, first compound 10 µM
[13] = second compound 0.316 µM, first compound 0.0316 µM
[14] = second compound 0.316 µM, first compound 0.1 µM
[15] = second compound 0.316 µM, first compound 0.316 µM
[16] = second compound 0.316 µM, first compound 1 µM
[17] = second compound 0.316 µM, first compound 3.16 µM
[18] = second compound 0.316 µM, first compound 10 µM
[19] = second compound 1 µM, first compound 0.0316 µM
[20] = second compound 1 µM, first compound 0.1 µM
[21] = second compound 1 µM, first compound 0.316 µM
[22] = second compound 1 µM, first compound 1 µM
[23] = second compound 1 µM, first compound 3.16 µM
[24] = second compound 1 µM, first compound 10 µM
[25] = second compound 3.16 µM, first compound 0.0316 µM
[26] = second compound 3.16 µM, first compound 0.1 µM
[27] = second compound 3.16 µM, first compound 0.316 µM
[28] = second compound 3.16 µM, first compound 1 µM
[29] = second compound 3.16 µM, first compound 3.16 µM
[30] = second compound 3.16 µM, first compound 10 µM
[31] = second compound 10 µM, first compound 0.0316 µM
[32] = second compound 10 µM, first compound 0.1 µM
[33] = second compound 10 µM, first compound 0.316 µM
[34] = second compound 10 µM, first compound 1 µM
[35] = second compound 10 µM, first compound 3.16 µM
[36] = second compound 10 µM, first compound 10 µM
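Further: spheroids exposed to compounds for seven days before readout.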

C=CC(=O)N1CCN(c2nc(=O)n(-c3c(C)ccnc3C(C)C)c3nc(-c4c(O)cccc4F)c(F)cc23)C(C)C1 (stereo not drawn) + Cc1cccc(N(C)C(=O)C2C(O)CCN2c2nc(C)cc(C(F)(F)F)c2C#N)c1
> 10 µM: IC50 (second compound 0.0316 µM) | IC50 (second compound 0.1 µM) | IC50 (second compound 0.316 µM) | IC50 (second compound 1 µM) | IC50 (second compound 3.16 µM) | IC50 (second compound 10 µM)
inactive: viability, T/C [1] 95.2% | viability, T/C [2] 89.3% | viability, T/C [3] 97% | viability, T/C [4] 110% | viability, T/C [5] 140% | viability, T/C [6] 126% | viability, T/C [7] 91.5% | viability, T/C [8] 92.7% | viability, T/C [9] 96.2% | viability, T/C [10] 115% | viability, T/C [11] 123% | viability, T/C [12] 131% | viability, T/C [13] 93.6% | viability, T/C [14] 116% | viability, T/C [15] 100% | viability, T/C [16] 126% | viability, T/C [17] 116% | viability, T/C [18] 121% | viability, T/C [19] 91.6% | viability, T/C [20] 108% | viability, T/C [21] 112% | viability, T/C [22] 103% | viability, T/C [23] 125% | viability, T/C [24] 130% | viability, T/C [25] 99.5% | viability, T/C [26] 105% | viability, T/C [27] 118% | viability, T/C [28] 133% | viability, T/C [29] 126% | viability, T/C [30] 116% | viability, T/C [31] 117% | viability, T/C [32] 108% | viability, T/C [33] 128% | viability, T/C [34] 120% | viability, T/C [35] 132% | viability, T/C [36] 105%

CC(C)n1c(=O)n(C)c2cnc3cc(F)c(-c4ccc(OCCCN5CCCCC5)nc4)cc3c21 + Cc1cccc(N(C)C(=O)C2C(O)CCN2c2nc(C)cc(C(F)(F)F)c2C#N)c1
inactive: viability, T/C [1] 101% | viability, T/C [2] 127% | viability, T/C [3] 95.2% | viability, T/C [4] 73.6% | viability, T/C [5] 93.2% | viability, T/C [6] 60.7% | viability, T/C [7] 99.1% | viability, T/C [8] 111% | viability, T/C [9] 98.9% | viability, T/C [10] 83.4% | viability, T/C [11] 73.5% | viability, T/C [12] 69.8% | viability, T/C [13] 125% | viability, T/C [14] 118% | viability, T/C [15] 96.8% | viability, T/C [16] 90.8% | viability, T/C [17] 88.1% | viability, T/C [18] 61.9% | viability, T/C [19] 103% | viability, T/C [20] 90.8% | viability, T/C [21] 95.3% | viability, T/C [22] 91.3% | viability, T/C [23] 78.4% | viability, T/C [24] 60.3% | viability, T/C [25] 91.8% | viability, T/C [26] 95.4% | viability, T/C [27] 88.8% | viability, T/C [28] 90.8% | viability, T/C [29] 80.2% | viability, T/C [30] 64.9% | viability, T/C [31] 97.3% | viability, T/C [32] 103% | viability, T/C [33] 96.5% | viability, T/C [34] 100% | viability, T/C [35] 78.9% | viability, T/C [36] 67.1%
> 10 µM: IC50 (second compound 0.0316 µM) | IC50 (second compound 0.1 µM) | IC50 (second compound 0.316 µM) | IC50 (second compound 1 µM) | IC50 (second compound 3.16 µM) | IC50 (second compound 10 µM)

CC1COCCN1c1cc(-c2ccnn2C)c2ccnc(-c3ccn[nH]3)c2n1 (stereo not drawn) + Cc1cccc(N(C)C(=O)C2C(O)CCN2c2nc(C)cc(C(F)(F)F)c2C#N)c1
1.32 µM: IC50 (second compound 0.1 µM)
1.4 µM: IC50 (second compound 0.316 µM)
1.64 µM: IC50 (second compound 0.0316 µM)
1.78 µM: IC50 (second compound 10 µM)
inactive: viability, T/C [1] 93.8% | viability, T/C [2] 69.7% | viability, T/C [3] 68.4% | viability, T/C [4] 56% | viability, T/C [5] 41% | viability, T/C [6] 40% | viability, T/C [7] 87.2% | viability, T/C [8] 68.4% | viability, T/C [9] 60.9% | viability, T/C [10] 52.6% | viability, T/C [11] 45.2% | viability, T/C [12] 40.9% | viability, T/C [13] 75.6% | viability, T/C [14] 78.2% | viability, T/C [15] 68.9% | viability, T/C [16] 50.7% | viability, T/C [17] 47.4% | viability, T/C [18] 36.9% | viability, T/C [19] 89% | viability, T/C [20] 81.6% | viability, T/C [21] 69.4% | viability, T/C [22] 48.4% | viability, T/C [23] 46.3% | viability, T/C [24] 38.1% | viability, T/C [25] 81.3% | viability, T/C [26] 78.4% | viability, T/C [27] 66.8% | viability, T/C [28] 54.9% | viability, T/C [29] 46.6% | viability, T/C [30] 36.7% | viability, T/C [31] 87.4% | viability, T/C [32] 90.1% | viability, T/C [33] 69.7% | viability, T/C [34] 56.3% | viability, T/C [35] 46.1% | viability, T/C [36] 38%
1.87 µM: IC50 (second compound 3.16 µM)
1.15 µM: IC50 (second compound 1 µM)

COc1ccc([C@@H](O)c2cc(-c3ncnc4cc(N5CCOCC5)ccc34)c(F)cc2Cl)nn1 + Cc1cccc(N(C)C(=O)C2C(O)CCN2c2nc(C)cc(C(F)(F)F)c2C#N)c1
3.95 µM: IC50 (second compound 0.0316 µM)
2.7 µM: IC50 (second compound 1 µM)
5.67 µM: IC50 (second compound 10 µM)
inactive: viability, T/C [1] 102% | viability, T/C [2] 82.1% | viability, T/C [3] 73.5% | viability, T/C [4] 73.9% | viability, T/C [5] 47.3% | viability, T/C [6] 40.5% | viability, T/C [7] 90.2% | viability, T/C [8] 86.5% | viability, T/C [9] 81.5% | viability, T/C [10] 71% | viability, T/C [11] 43% | viability, T/C [12] 39.9% | viability, T/C [13] 101% | viability, T/C [14] 112% | viability, T/C [15] 91.4% | viability, T/C [16] 62.7% | viability, T/C [17] 53.2% | viability, T/C [18] 38.9% | viability, T/C [19] 81.8% | viability, T/C [20] 94.2% | viability, T/C [21] 69.3% | viability, T/C [22] 76.6% | viability, T/C [23] 45.3% | viability, T/C [24] 39.1% | viability, T/C [25] 85.3% | viability, T/C [26] 80.9% | viability, T/C [27] 76% | viability, T/C [28] 66.2% | viability, T/C [29] 53.3% | viability, T/C [30] 36.5% | viability, T/C [31] 115% | viability, T/C [32] 92.4% | viability, T/C [33] 89% | viability, T/C [34] 69% | viability, T/C [35] 53.7% | viability, T/C [36] 44.8%
2.46 µM: IC50 (second compound 0.1 µM)
3.94 µM: IC50 (second compound 3.16 µM)
2.64 µM: IC50 (second compound 0.316 µM)
